“Also recorded” adds a separate entry of the source.
Columns and labels:
[1] = tested on: vascular lesion (abnormal vasculature) in brain tissue; details: ICG alone; general comparison statement; cited from earlier work
[2] = tested on: Grade 4 Atypical Teratoid Rhabdoid Tumor (ATRT) in the posterior fossa/brain stem; test: Intraoperative NIR fluorescence imaging during pediatric brain tumor resection; assay type: in vivo, human
Procedure: This example describes use of the imaging system and/or method disclosed herein for coaxial illumination and visualization of tozuleristide fluorescence during surgical resection of a pediatric brain tumor. The imaging system of the present invention was used to image brain tissue to detect a cancer using fluorescence imaging. Surgery was performed to remove cancer from the subject.
Subject T613 was diagnosed with a Grade 4 Atypical Teratoid Rhabdoid Tumor (ATRT) in the posterior fossa/brain stem. Tozuleristide which is a peptide-fluorophore detectable agent (15 mg/m2 dose), was given by intravenous (IV) bolus injection about 13.5 hours prior to the start of surgery. The imaging system was attached to the Zeiss Pentero surgical microscope prior the start of surgery, and the microscope head and arm and the imaging system and proximal imaging cable were enclosed in the microscope manufacturer's standard sterile drape. The drape's cover glass was secured over the bottom window aperture of the imaging system.
After the tumor was exposed, the imaging platform was initialized and used continuously. The imaging platform enabled the surgeon to view fluorescence and visible imaging separately and together on the imaging station display, simultaneously with viewing the surgical site in visible light through the operating microscope's eyepieces. […] Moreover, there was no need to reposition the operating microscope to view the imaging platform's fluorescence and visible images, thus allowing normal imaging of the surgical area through the microscope's eyepieces together with the fluorescence imaging system during the operation, which decreased disruption to the surgical workflow.
Video was captured for the duration of the tumor resection, and still images were captured of the exposed tumor. […] FIGS. 15A-15F show images taken from the tumor resection with the near-infrared (NIR) fluorescence images of the tumor using the imaging system (FIGS. 15B and 15E) and the overlay image with the NIR or IR fluorescence overlaid with the white light or visible light spectrum illumination (FIGS. 15C and 15F). […] In the overlay image, the normal brain tissue appeared red, as it does under normal visible light or white light as shown the visible light images of the tumor ([…]). The surgeon noted that only tumor tissue appeared fluorescent.

[3] = tested on: vascular lesion (abnormal vasculature) in brain tissue; test: Intraoperative NIR fluorescence imaging during resection of a cerebral vascular lesion (arteriovenous or cavernous malformation); assay type: in vivo, human; details: for Fluorescence in surrounding normal brain tissue and normal vasculature / Tozuleristide fluorescence in the abnormal vascular tissue / vascular lesion: pediatric subject, 22 mg IV approximately 5-6 hours before surgery and image collection, in situ
Procedure: This example describes use of the imaging system and/or methods disclosed herein for coaxial illumination and visualization of tozuleristide fluorescence during surgical resection of an arteriovenous malformation or cavernous malformation in a pediatric patient. The imaging system of the present invention was used to image brain tissue to detect abnormal vasculature using fluorescence imaging. Surgery was performed to remove the abnormality from the subject.
A pediatric subject with a history of anosmia was found on MRI to have a 3.5 cm T1-hypointense, T2/FLAIR-hyperintense mass in the right middle frontal gyrus with a central enhancing nodule, initially diagnosed pre-operatively to be a low-grade glioma. […] The patient received 22 mg tozuleristide via IV injection approximately 5-6 hours before surgery and image collection. The imaging system head was attached to the Zeiss Pentero surgical microscope along with two eyepieces prior the start of surgery.
After the lesion was exposed, the imaging system was initialized and used continuously. The imaging system enabled the surgeon to view fluorescence and visible imaging together and simultaneously with the operating microscope. A microsurgical resection was performed through a right frontal craniotomy. […] The abnormal tissue was completely resected. The patient recovered without deficit. Pathology confirmed the absence of tumor.
Video was captured for the duration of the resection, and still images were captured of the exposed lesion. […] FIGS. 29A-I show images taken from the vascular lesion with the near-infrared (NIR) fluorescence images of the vascular lesion using the imaging system. […] In the overlay image, the normal brain tissue and normal blood vessels appeared pink or light tan to red, as it does under normal visible light or white light. The surgeon noted that only the abnormal vascular tissue appeared fluorescent.
FIGS. 29A-I show representative images of in situ or intra-operative tissue during surgery on a vascular lesion in a patient, wherein 22 mg of tozuleristide was administered to the human subject. […] Labeled arrows indicate non-fluorescent regions of normal blood vessels (“BV”) and normal brain tissue (“NB”). In contrast, fluorescence signal corresponding to lighter and brighter areas in the NIR or IR image, was indicative of the presence of tozuleristide on the abnormal vascular lesion (“VL”), and not in normal tissue. […] The arrows mark the same locations as shown in the NIR or IR image in FIG. 29E. […] Fluorescence in the vascular lesion (“VL”) clearly differentiated it from the surrounding normal tissues, including normal blood vessels (“BV”). […] Arrows indicate the vascular lesion (labeled “VL”) and adjacent normal brain (labeled “NB”), which is non-fluorescent. […] While the normal brain has a light tan to pink color (light gray in a gray scale image), it is perfused with normal blood vessels that can be differentiated from the vascular lesion by the absence of fluorescence.

[4] = Subject T613, 15 mg/m2 IV bolus about 13.5 hours prior to start of surgery, in situ

CC1(C)C(/C=C/C=C/C=C/C=C2\N(CCCCS(=O)(=O)O)c3ccc4ccccc4c3C2(C)C)=[N+](CCCCS(=O)(=O)[O-])c2ccc3ccccc3c21 [ICG, indocyanine green]
Blood vessel fluorescence after injection [1]: transiently lights up blood vessels immediately after injection

Tozuleristide
Surgeon's assessment of the distinction between tumor and normal tissue fluorescence ([2]; NIR or IR fluorescence using the imaging system, compared with normal visible light): very good distinction between tumor and normal tissue fluorescence
Fluorescence in non-tumor brain tissue [2, 4]: did not show any fluorescence
Tozuleristide fluorescence in the exposed tumor (NIR or IR fluorescence image) [2, 4]: observed in situ in the exposed tumor
Histopathology of the fluorescent tissue samples ([2]; tumor resection, Subject T613): confirmed to be viable tumor
Time after injection at which diseased tissue can be highlighted ([3]; general statement, fluorescence dependent on pathological tissue binding and uptake): up to 30 hours
Fluorescence in surrounding normal brain tissue and normal vasculature [3]: showed no fluorescence
Tozuleristide fluorescence in the abnormal vascular tissue / vascular lesion [3]: indicative of the presence of tozuleristide in the vascular lesion; also recorded: fluoresced avidly
Fluorescence in surrounding normal brain tissue and normal vasculature ([3]; listed as Tozuleristide): no discernable background fluorescence
Tozuleristide fluorescence in the abnormal vascular tissue / vascular lesion ([3]; listed as Tozuleristide): observed in situ in the exposed vascular lesion
Histopathology of the fluorescent tissue samples ([3]; vascular lesion resection): confirmed to be non-cancerous and vascular in nature

Source: patent US20240280490A1, “SYSTEMS AND METHODS FOR SIMULTANEOUS NEAR-INFRARED LIGHT AND VISIBLE LIGHT IMAGING” (priority 2020, published 2024)
